In paper PMC12040169 (PLOS Biology, 2025) one finds viability data, which are given here for 51 compounds.

A short description of the first data set: in vitro. The conditions noted are these: human, hela cells, % viability.
Consider `COc1cccc(C(=O)N2CCN(C)C(=O)C2Cc2ccccc2-c2ccccc2)c1OC` (stereo not drawn) [CBK285828], for which the viability at 28.5 h, 10 µM came to 109%.

Regarding `COc1ccc(OC)c(C(=O)N2CCNC(=O)C2Cc2ccccc2-c2ccc(F)cc2)c1` (stereo not drawn) [CBK285829], the viability at 28.5 h, 10 µM turned out to be 105%.

On to `Cn1nc(C(C)(C)C)cc1C(=O)N1CCNC(=O)C1Cc1ccccc1-c1ccc(F)cc1` (stereo not drawn) [CBK285830], for which the viability at 28.5 h, 10 µM amounted to 101%.

With `O=C1NCCN(C(=O)COc2ccc(F)cc2F)C1Cc1ccccc1-c1cccnc1` (stereo not drawn) [CBK285832], the viability at 28.5 h, 10 µM came out at 95.6%.

With `Cc1ccc2[nH]c(-c3cccc(NC(=O)c4ccc(-n5cnnc5)cc4)c3)nc2c1` [CBK285839], the viability at 28.5 h, 10 µM was 94.1%.

On to `COc1c(C)cccc1C(=O)N1CCCCC1c1ncc(C(=O)Nc2ccccc2)c(C)n1` (stereo not drawn) [CBK285841], for which the viability at 28.5 h, 10 µM stood at 89.9%.

Turning to `CCN(Cc1ncc[nH]1)[C@H]1CCO[C@@H](c2ccccc2-c2ccc(OC)cc2)C1` [CBK285842], the viability at 28.5 h, 10 µM amounted to 104%.

Consider `CCOc1ccccc1-c1ccccc1NC(=O)c1ccc(-n2nc(C)cc2C)cc1` [CBK285845], for which the viability at 28.5 h, 10 µM was 54.1%.

On to `COC(C)(C)C(=O)N1CCCC(c2ccc(Cc3ccc(Cl)cc3)cn2)C1` (stereo not drawn) [CBK285846], for which the viability at 28.5 h, 10 µM amounted to 98.6%.

For `COc1ccc(CCCC(=O)N2CCC(c3c(C(N)=O)sc4ccccc34)C2)cc1C` (stereo not drawn) [CBK285848], the viability at 28.5 h, 10 µM was 94%.

Consider `COc1cccc(-c2ccc(NC(=O)c3ccc(Cn4cnnn4)cc3)cc2)c1` [CBK285850], for which the viability at 28.5 h, 10 µM stood at 93.4%.

For `CCN(Cc1nccn1CC)[C@H]1CCO[C@@H](c2ccccc2-c2ccc(OC)cc2)C1` [CBK285852], the viability at 28.5 h, 10 µM was found to be 101%.

As to `CCN(Cc1cnn(C)c1)[C@H]1CCO[C@@H](c2ccccc2-c2ccc(OC)cc2)C1` [CBK285854], the viability at 28.5 h, 10 µM was 98%.

With `CCN(C(=O)c1ccc(C)nc1)[C@H]1CCO[C@@H](c2cccc(-c3cc(F)cc(F)c3)c2)C1` [CBK285856], the viability at 28.5 h, 10 µM was 91%.

As to `Cc1ccc(Oc2ccc(CNC(=O)c3sc4nc[nH]c(=O)c4c3C)cc2)cc1` [CBK285857], the viability at 28.5 h, 10 µM is 91.3%.

As for `COc1ccc(CC(=O)N2CCCCC2c2cc(-c3ccc(F)cc3)cc(C)n2)cc1OC` (stereo not drawn) [CBK285858], the viability at 28.5 h, 10 µM came out at 98.8%.

Consider `CC(C)NC(=O)c1cc([C@H]2CC[C@H](CNC(=O)Cn3cccn3)CC2)nc2ccccc12` [CBK285859], for which the viability at 28.5 h, 10 µM worked out at 112%.

Turning to `Cc1n[nH]cc1C(=O)NC[C@H]1CC[C@H](c2cc(C(=O)NC(C)C)c3ccccc3n2)CC1` [CBK285862], the viability at 28.5 h, 10 µM amounted to 96.3%.

For `COc1ccc(CC(C(=O)Nc2ccc3nc[nH]c(=O)c3c2)c2ccccc2)cc1` (stereo not drawn) [CBK285863], the viability at 28.5 h, 10 µM turned out to be 94.3%.

As to `COc1ccc(-c2ccccc2NC(=O)c2ccc(Cn3cnnn3)cc2)cc1` [CBK285866], the viability at 28.5 h, 10 µM worked out at 96.4%.

Regarding `CC(C)CNC(=O)c1cc([C@H]2CC[C@H](CNC(=O)c3cnn(C)c3)CC2)nc2ccccc12` [CBK285867], the viability at 28.5 h, 10 µM was determined as 114%.

In the case of `CNC(=O)c1sc2ccccc2c1C1CN(Cc2cn(C)c3ccc(F)cc23)CCO1` (stereo not drawn) [CBK285868], the viability at 28.5 h, 10 µM is 87.4%.

With `CC(C)NC(=O)c1sc2ccccc2c1C1CN(C(=O)CC2CCCCC2)CCO1` (stereo not drawn) [CBK285869], the viability at 28.5 h, 10 µM was 91.5%.

As to `Cc1c(C(=O)N2CCC(c3c(C(=O)NC(C)C)sc4ccccc34)C2)[nH]c2ccccc12` (stereo not drawn) [CBK285872], the viability at 28.5 h, 10 µM was found to be 84.8%.

For `CC(C)NC(=O)c1sc2ccccc2c1C1CCN(C(=O)CCc2ccccc2)C1` (stereo not drawn) [CBK285874], the viability at 28.5 h, 10 µM was found to be 99.2%.

Consider `CNC(=O)c1sc2ccccc2c1C1CCN(C(=O)CCN(C)c2ccc(F)cc2)C1` (stereo not drawn) [CBK285878], for which the viability at 28.5 h, 10 µM is 96.5%.

Take `CNC(=O)c1sc2ccccc2c1C1CCN(Cc2ccc(Oc3ncccn3)cc2)C1` (stereo not drawn) [CBK285881]: the viability at 28.5 h, 10 µM was determined as 85.9%.

Take `CNC(=O)c1sc2ccccc2c1C1CCN(Cc2cnn(-c3ccc(F)cc3)c2)C1` (stereo not drawn) [CBK285882]: the viability at 28.5 h, 10 µM was determined as 84.1%.

Turning to `Cc1ccc(CC(=O)N2CCC(c3ncc(C(=O)Nc4ccc(F)cc4)c(C)n3)CC2)cc1` [CBK285884], the viability at 28.5 h, 10 µM came to 111%.

For the compound `Cc1cccc(CC(=O)N2CCC(c3ncc(C(=O)Nc4ccc(F)cc4)c(C)n3)CC2)c1` [CBK285885], the viability at 28.5 h, 10 µM was determined as 101%.

In the case of `O=c1[nH]cc(S(=O)(=O)N2CCN(Cc3ccccc3Cl)CC2)c(=O)[nH]1` [CBK285889], the viability at 28.5 h, 10 µM amounted to 97.1%.

As to `Cc1nn(C(C)C)c(C)c1CN1CCC(c2c(C(=O)NC(C)C)sc3ccccc23)C1` (stereo not drawn) [CBK285890], the viability at 28.5 h, 10 µM came to 95.5%.

Consider `CC(=O)NCc1ccc(-c2ccc(C(=O)NC3(c4ccccc4)CCCC3)c(C)n2)cc1` [CBK285891], for which the viability at 28.5 h, 10 µM came to 96%.

As for `CC(=O)N1CCC(c2c(C(=O)Nc3cccc(CN4CCCC4)c3)sc3ccccc23)C1` (stereo not drawn) [CBK285892], the viability at 28.5 h, 10 µM worked out at 110%.

Consider `CC(C)NC(=O)c1cc(C2CN(Cc3ccc4ncccc4c3)CCO2)nc2ccccc12` (stereo not drawn) [CBK285895], for which the viability at 28.5 h, 10 µM is 92.9%.

As for `Cc1ncc(CN2CCOC(c3cc(C(=O)NCC(C)C)c4ccccc4n3)C2)s1` (stereo not drawn) [CBK285897], the viability at 28.5 h, 10 µM is 89.9%.

For `CC(C)CC(=O)N1CCC(Cc2ccccc2-c2cccs2)(C(=O)NC(C)C)CC1` [CBK285898], the viability at 28.5 h, 10 µM worked out at 87.3%.

Take `CC(C)c1csc(NC(=O)CC2CCN(S(=O)(=O)c3cccc(F)c3)CC2)n1` [CBK285902]: the viability at 28.5 h, 10 µM stood at 83.4%.

`CC(C)c1nnc(NC(=O)CC2CCN(C(=O)C3(c4ccccc4)CCCC3)CC2)s1` [CBK285905]: the viability at 28.5 h, 10 µM was determined as 94.9%.

On to `Cc1ccc(CC(=O)N2CCC(Cc3ccc(-c4cccc(C)c4)cc3)(C(N)=O)CC2)cc1` [CBK285906], for which the viability at 28.5 h, 10 µM stood at 89%.

`NC(=O)C1(Cc2ccccc2-c2ccccc2)CCN(C(=O)Cc2ccccc2)CC1` [CBK285909]: the viability at 28.5 h, 10 µM amounted to 95.9%.

`COc1ccc(CC(=O)N2CCC(Cc3ccccc3-c3ccccc3)(C(N)=O)CC2)cc1` [CBK285911]: the viability at 28.5 h, 10 µM stood at 91.8%.

In the case of `COc1cc(CN2CCC(Cc3ccccc3-c3ccccc3)(C(N)=O)CC2)cc(OC)c1` [CBK285912], the viability at 28.5 h, 10 µM came to 88.1%.

For the compound `COc1cccc(CN2CC=CCC(C3CCN(c4nc(C)cc(C)n4)CC3)C2=O)c1` (stereo not drawn) [CBK285915], the viability at 28.5 h, 10 µM is 85.6%.

For `CC(C)NC(=O)c1cc(C2CCN(C(=O)CCOc3ccccc3F)C2)nc2ccccc12` (stereo not drawn) [CBK285917], the viability at 28.5 h, 10 µM came to 101%.

On to `COc1cccc(C(=O)NC[C@H]2CC[C@H](c3cc(C(N)=O)c4ccccc4n3)CC2)c1OC` [CBK285919], for which the viability at 28.5 h, 10 µM came out at 88.6%.

Consider `CC(C)NC(=O)c1cc(C2CCN(C(=O)CCCc3ccc(F)cc3)C2)nc2ccccc12` (stereo not drawn) [CBK285921], for which the viability at 28.5 h, 10 µM was determined as 95.2%.

As to `CNC(=O)C1(Cc2ccc(-c3cccc(C)c3)cc2)CCN(C(=O)CC(C)(C)C)CC1` [CBK285923], the viability at 28.5 h, 10 µM was found to be 86.4%.

On to `Cc1cc(C)nc(N2CCCC(O)(c3nc(C)c(CCOc4ccccc4)s3)CC2)n1` (stereo not drawn) [CBK285924], for which the viability at 28.5 h, 10 µM was 111%.

Consider `CC(C)CNC(=O)c1cc(C2CN(Cc3c[nH]nc3C(C)(C)C)CCO2)nc2ccccc12` (stereo not drawn) [CBK285925], for which the viability at 28.5 h, 10 µM was 104%.

Still in this data set, the particulars now being: human, hela cells, % viability, bulk resorufin, single well.
Regarding `CC1CCN(c2ccc(C(C)NC(=O)CCC3C(=O)NC(=O)NC3=O)cc2)CC1` (stereo not drawn) [CBK285849], the viability at 28.5 h, 10 µM amounted to 96.9%.

The viability is a read-out of living cells in per cent, often relative to untreated cells.
